# Patent publication US20030082135A1, “Pathway of RANTES-mediated chemokine synthesis in astrocytes and methods of use therefor” (priority 2001, published 2003)
# What was measured:
# [1] = system: intracellular cAMP in astrocytes; test: Intracellular cAMP in astrocytes (EIA); assay type: cell-based, mouse
# Experimental: FIG. 8 is a set of bar graphs showing that RANTES reduced intracellular cAMP accumulation in astrocytes. Panel A. Astrocytes were treated with the indicated doses of RANTES or TCA4 for 5 min. Intracellular cAMP was detected as described in Materials and Methods. Values represent the mean±S.E.M of triplicate experiments. Panel B. Kinetics of intracellular cAMP levels. Astrocytes were treated with 100 ng/ml RANTES for indicated times. Panel C. RANTES inhibited forskolin-induced intracellular cAMP accumulation. Astrocytes were pretreated with 1 μM forskolin for 1 h then stimulated with the indicated amount of RANTES for 5 min. Intracellular cAMP was determined by EIA. Values are presented as relative cAMP level and represent the mean±S.E.M. of triplicate experiments.
# To further elucidate the RANTES-mediated signaling pathway in astrocytes, intracellular cAMP levels were evaluated following chemokine stimulation. Primary mouse astrocytes were incubated with the indicated dose of RANTES or the negative control chemokine, TCA4 for 5 min and monitored for cAMP levels. RANTES (100 ng/ml) decreased intracellular cAMP levels by 68% in a dose dependent fashion (FIG. 8A).
# [2] = system: astrocytes; test: ELISA of KC, TNF-α and MCP-1 protein in astrocyte culture supernatants; assay type: cell-based, mouse
# Experimental: ELISA. For production of supernatants, 2×10^4 astrocytes were cultured in 96 well plates with medium or 100 ng/ml RANTES. Supernatants were collected after the indicated times. ELISA assays for KC and MCP-1 were performed as in Luo, Y., et al. 1999. J Immunol 163:3985, and for TNF-α as in Abromson-Leeman, et al. 2001. Eur J Immunol 31:527. Protein levels were determined using recombinant KC, MCP-1, or TNF-α (R & D Systems, Minneapolis, Minn.) as standards.
# [3] = system: mouse thymocytes; test: RPA for chemokine/cytokine transcripts in thymocytes; assay type: cell-based; details: 100 ng/ml, 6 h
# Experimental: To evaluate the cellular specificity of chemokine induction by RANTES-related chemokines, mouse thymocytes were treated with 2.5 μg/ml ConA, 100 ng/ml RANTES, or TCA4. After 6 h the cells were harvested for RNA extraction. […] Thus, the ability of RANTES-related chemokines to up-regulate chemokine/cytokine synthesis is not a generalized phenomenon in all cell types, but is specific for CNS cells such as astrocytes.
# [4] = system: Raf-1; test: Raf-1 kinase activity in lysates of treated astrocytes (phosphorylation of MEK); assay type: cell-based, mouse; details: 100 ng/ml RANTES
# Experimental: FIG. 12 is a set of bar graphs and a photograph of a Western blot showing that RANTES activated Raf-1 kinase activity in astrocytes. Panel A. Astrocytes were stimulated with 100 ng/ml RANTES for the indicated times and cell lysates were prepared for analysis of Raf-1 activity. Values are presented as relative Raf-1 kinase activity (percent) and represent the mean±S.E.M. of triplicate experiments. Panel B. Astrocytes were stimulated with 100 ng/ml RANTES for the indicated times and cell lysates were prepared for analysis by Western blotting. Blots were stained with anti phospho-Raf (Ser 259) Ab or control anti-Raf Ab. Panel C. […] Astrocytes were pretreated with the indicated doses of Raf-1 inhibitor for 1 h and then stimulated with 100 ng/ml RANTES for 3 h. Total RNA was prepared and assayed by RPA for expression of message for the indicated proinflammatory mediators and the housekeeping genes L32 and GAPDH. Representative data from one of three similar experiments are presented. […]
# It is herein shown that RANTES induced Raf-1 kinase activity in 1 to 5 min; Raf-1 kinase activity peaked after 5-10 min (FIG. 12A). […] Increased Raf-1 enzyme activity was accompanied by dephosphorylation of Ser 259, an inhibitory phosphate site detected by a specific anti-Raf (Ser 259) antibody (FIG. 12B).
# [5] = system: PKA; test: PKA activity assay on lysates of treated astrocytes; assay type: cell-based, mouse
# Experimental: PKA activity assay. PKA activity was determined using a commercially available kit (Calbiochem, San Diego, Calif.) according to manufacturer's recommendations. Primary mouse astrocytes were grown in 6-well plates and then stimulated as described and lysed in 100 μl buffer (same buffer used for Western blotting) for 30 min. Five μl of the lysates were incubated with 20 μl PKA reaction mixture at 30° C. for 30 min. The reaction was terminated by adding 10 μl stop solution and ^32P radioactivity was counted.
# [6] = system: CXCR4, CX3CR1, CCR1, CCR5 transcripts in astrocytes; test: RPA for chemokine receptor transcripts in astrocytes; assay type: cell-based, mouse; details: average, pooled results of 3-4 experiments
# Experimental: RNA isolation and RNase protection assay (RPA). RNA was prepared as in Luo, Y., et al. 1999. J Immunol 163:3985. RNase protection assays (RPA) for chemokine message were conducted with multi-probe templates according to the manufacture's protocol (RiboQuant assay kit, BD-PharMingen, San Diego, Calif.). Gels were scanned and radioactive bands quantitated using a phosphoimager (Molecular Dynamics, Sunnyvale, Calif.). Levels of uniformly expressed housekeeping genes large ribosomal subunit protein 32-3A (L32) or glyceraldehyde-3-phosphate dehydrogenase (GAPDH), were used for normalization. The value of each chemokine receptor band divided by the value of the indicated housekeeping gene band in the same sample yielded the relative intensity. Normalized receptor expression represents the ratio of the relative intensity following treatment with chemokine versus the relative intensity of medium alone.
# Treatment with the RANTES-related chemokines RANTES or eotaxin, or with TNF-α also found to down-regulate expression of CX3CR1 transcripts. In addition, CXCR4 mRNA levels were decreased, while the levels of CCR1 transcripts were elevated. In contrast, little or no regulation of CCR5 was noted. The pooled results of 3-4 experiments indicate eotaxin caused an average 60% decrease in CXCR4 (P less than 0.01) and a 70% decrease in CX3CR1 mRNA (P less than 0.02) (FIG. 8.B). The effects of RANTES stimulation were similar with an average 70 and 90% reduction in CXCR4 and CX3CR1 transcripts, respectively (P less than 0.01).
substance,measurement,setting,value
RANTES,time within which intracellular cAMP was dramatically decreased,[1]; 100 ng/ml RANTES,≤ 1 min
same,decrease of intracellular cAMP levels,"[1]; 100 ng/ml, 5 min",68%
same,effect on forskolin-induced cAMP accumulation,"[1]; 1 μM forskolin 1 h, then RANTES 5 min",inhibited forskolin-induced cAMP accumulation in a dose dependent manner
same,time at which KC protein reached a plateau,[2]; 100 ng/ml RANTES,1 days
same,time at which KC protein synthesis was detectable,[2]; 100 ng/ml RANTES,≤ 8 h
same,time at which KC protein was detected,[2]; 100 ng/ml RANTES,12 h
same,KC protein concentration in supernatant,"[2]; 100 ng/ml RANTES, after 16 h",20 to 30 ng/mL
same,TNF-α protein level in supernatant,"[2]; 100 ng/ml RANTES, after 16 h",less than 120 pg/ml
same,TNF-α protein in culture supernatants,[2]; 6 h after RANTES stimulation,not detectable
same,TNF-α protein in culture supernatants,[2]; 12 h after RANTES stimulation,greater than 100 pg/ml
same,time of peak TNF-α protein levels,[2]; RANTES stimulation,24 h
same,RANTES and TNF-α RNA levels in thymocytes,[3],not to ber further enhanced
same,time of peak Raf-1 kinase activity,[4],5 to 10 min
same,inhibition of PKA activity,"[5]; 100 ng/ml RANTES, 20 min",60%
same,time of maximal reduction of PKA kinase activity,[5]; after RANTES stimulation,10 min
same,decrease in CX3CR1 mRNA,[6],90%
same,decrease in CXCR4 mRNA,[6],70%
